Measurements from patent US20140178315A1, “Topical Compositions Comprising Ionic Fluids” (Arch Chemicals, Inc., priority 2012, published 2014).

Settings: 3 g salt added to 21 g anhydrous betaine glycolate ionic fluid; heated at 105° C. for 2 hours; remained a viscous fluid after cooling to room temperature

C[N+](C)(C)CC(=O)O.O=c1cc(CO)occ1[O-] [betaine kojiate]
Solubility of betaine kojiate in betaine glycolate ionic fluid (appearance of the mixture): formed a clear fluid
